Test results as given in the supplement of paper PMC11061612.

Tests used:
Test in all cases: combination Emax (second highest fraction inhibited in the dose matrix, 72 h); higher = more inhibition; extreme values may be limits of the assay
[1] = test system: SR (Other Blood Carcinomas)
Method in brief: (§1)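 After 24 hours at 37°C and 5% CO2 in 1536-well plates, cells in DMEM/F12 or RPMI plus 10% FBS received two-drug dose matrices for 72 hours. Viability came from CellTiter-Glo 2.0 luminescence and was scaled as inhibition, anchored at 0 by vehicle wells and at 1 by blank wells. Combination Emax is taken as the second-highest inhibition in the matrix, and Bliss excess as the observed combination effect less EA + EB − EA·EB, with EA and EB the single-agent effects.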

[2] = test system: MOLT-16 (T-Lymphoblastic Leukemia)
Method in brief: as §1

[3] = test system: CHP-212 (Neuroblastoma)
Method in brief: as §1

[4] = test system: HDQ-P1 (Breast Carcinoma)
Method in brief: as §1

[5] = test system: SW1417 (Colorectal Carcinoma)
Method in brief: as §1

[6] = test system: K-562 (Chronic Myelogenous Leukemia)
Method in brief: as §1

[7] = test system: HL-60 (Acute Myeloid Leukemia)
Method in brief: as §1

[8] = test system: WIL2-NS (Non-Cancerous)
Method in brief: as §1

[9] = test system: DiFi (Colorectal Carcinoma)
Method in brief: as §1

[10] = test system: TE-6 (Esophageal Squamous Cell Carcinoma)
Method in brief: as §1

[11] = test system: ES8 (Ewing's Sarcoma)
Method in brief: as §1

[12] = test system: MFM-223 (Breast Carcinoma)
Method in brief: as §1

[13] = test system: GR-ST (B-Lymphoblastic Leukemia)
Method in brief: as §1

[14] = test system: KM12 (Colorectal Carcinoma)
Method in brief: as §1

[15] = test system: SU-DHL-8 (B-Cell Non-Hodgkin's Lymphoma)
Method in brief: as §1

[16] = test system: L-540 (Hodgkin's Lymphoma)
Method in brief: as §1

[17] = test system: KARPAS-45 (T-Lymphoblastic Leukemia)
Method in brief: as §1

[18] = test system: ES1 (Ewing's Sarcoma)
Method in brief: as §1

[19] = test system: TOV-112D (Ovarian Carcinoma)
Method in brief: as §1

[20] = test system: P12-ICHIKAWA (T-Lymphoblastic Leukemia)
Method in brief: as §1

SMILES: Cc1c2c(nn1C)CSCc1cc(n(C)n1)CSc1cc(c3ccccc3c1)OCCCc1c(C(=O)O)n(C)c3c-2c(Cl)ccc13 [AZD5991] + Cc1cc2ncnn2cc1Nc1ncc2c(n1)n(C1CCOCC1)c(=O)n2C [AZD7648] (first compound max 1 µM, 7x7, partner max 10 µM)
- combination Emax [1]: 0.984
- combination Emax [2]: 1
- combination Emax [3]: 0.831
- combination Emax [4]: 0.257
- combination Emax [5]: 0.297
- combination Emax [6]: 0.182
- combination Emax [7]: 1
- combination Emax [8]: 0.41
- combination Emax [9]: 0.319
- combination Emax [10]: 0.683
- combination Emax [11]: 0.455
- combination Emax [12]: 0.288
- combination Emax [13]: 0.464
- combination Emax [14]: 0.208
- combination Emax [15]: 0.684
- combination Emax [16]: 1
- combination Emax [17]: 0.936
- combination Emax [18]: 0.798
- combination Emax [19]: 0.492
- combination Emax [20]: 1

SMILES: COc1nnc2ccc(N3CCC(c4ccc(OCCN5CCN(C)C(=O)[C@H]5C)cc4)CC3)nn12 [AZD5153] + CCN(CCO)CCCOc1ccc2c(Nc3cc(CC(=O)Nc4cccc(F)c4)[nH]n3)ncnc2c1 [AZD2811] (first compound max 1 µM, 7x7, partner max 1 µM)
- combination Emax [1]: 0.913
- combination Emax [2]: 1
- combination Emax [3]: 0.964
- combination Emax [4]: 0.431
- combination Emax [5]: 0.477
- combination Emax [6]: 0.517
- combination Emax [7]: 0.984
- combination Emax [8]: 0.811
- combination Emax [9]: 0.667
- combination Emax [10]: 0.632
- combination Emax [11]: 0.994
- combination Emax [12]: 0.415
- combination Emax [13]: 0.818
- combination Emax [14]: 0.66
- combination Emax [15]: 0.982
- combination Emax [16]: 0.716
- combination Emax [17]: 1
- combination Emax [18]: 0.612
- combination Emax [19]: 0.718
- combination Emax [20]: 1

SMILES: CC1(C)CCC(CN2CCN(c3ccc(C(=O)NS(=O)(=O)c4ccc(NCC5CCOCC5)c([N+](=O)[O-])c4)c(Oc4cnc5[nH]ccc5c4)c3)CC2)=C(c2ccc(Cl)cc2)C1 [Venetoclax] + CCN(CCO)CCCOc1ccc2c(Nc3cc(CC(=O)Nc4cccc(F)c4)[nH]n3)ncnc2c1 [AZD2811] (first compound max 1 µM, 7x7, partner max 1 µM)
- combination Emax [1]: 0.946
- combination Emax [2]: 1
- combination Emax [3]: 0.74
- combination Emax [4]: 0.172
- combination Emax [5]: 0.209
- combination Emax [6]: 0.393
- combination Emax [7]: 0.918
- combination Emax [8]: 0.857
- combination Emax [9]: 0.486
- combination Emax [10]: 0.26
- combination Emax [11]: 1
- combination Emax [12]: 0.252
- combination Emax [13]: 0.648
- combination Emax [14]: 0.17
- combination Emax [15]: 0.414
- combination Emax [16]: 0.723
- combination Emax [17]: 0.96
- combination Emax [18]: 0.759
- combination Emax [19]: 0.266
- combination Emax [20]: 1

SMILES: Cc1c2c(nn1C)CSCc1cc(n(C)n1)CSc1cc(c3ccccc3c1)OCCCc1c(C(=O)O)n(C)c3c-2c(Cl)ccc13 [AZD5991] + C[C@@H](Nc1cc(F)cc(F)c1)c1cc(C(=O)N(C)C)cc2c(=O)cc(N3CCOCC3)oc12 [AZD8186] (first compound max 1 µM, 7x7, partner max 3 µM)
- combination Emax [1]: 0.954
- combination Emax [2]: 1
- combination Emax [3]: 0.882
- combination Emax [4]: 0.237
- combination Emax [5]: 0.275
- combination Emax [6]: 0.389
- combination Emax [7]: 1
- combination Emax [8]: 0.337
- combination Emax [9]: 0.35
- combination Emax [10]: 0.677
- combination Emax [11]: 0.613
- combination Emax [12]: 0.258
- combination Emax [13]: 0.257
- combination Emax [14]: 0.205
- combination Emax [15]: 0.688
- combination Emax [16]: 1
- combination Emax [17]: 0.99
- combination Emax [18]: 0.904
- combination Emax [19]: 0.35
- combination Emax [20]: 0.964

SMILES: CC1(C)CCC(CN2CCN(c3ccc(C(=O)NS(=O)(=O)c4ccc(NCC5CCOCC5)c([N+](=O)[O-])c4)c(Oc4cnc5[nH]ccc5c4)c3)CC2)=C(c2ccc(Cl)cc2)C1 [Venetoclax] + C=CCn1c(=O)c2cnc(Nc3ccc(N4CCN(C)CC4)cc3)nc2n1-c1cccc(C(C)(C)O)n1 [AZD1775] (first compound max 1 µM, partner max 1 µM)
- combination Emax [1]: 0.995
- combination Emax [2]: 1
- combination Emax [3]: 0.769
- combination Emax [4]: 0.532
- combination Emax [5]: 0.505
- combination Emax [6]: 0.892
- combination Emax [7]: 0.899
- combination Emax [8]: 0.99
- combination Emax [9]: 0.674
- combination Emax [10]: 0.497
- combination Emax [11]: 0.94
- combination Emax [12]: 0.457
- combination Emax [13]: 0.813
- combination Emax [14]: 0.781
- combination Emax [15]: 1
- combination Emax [16]: 0.957
- combination Emax [17]: 0.955
- combination Emax [18]: 0.946
- combination Emax [19]: 0.393
- combination Emax [20]: 0.966
